Experiments:
[1] = test system: nitric oxide (NO), inducible nitric oxide synthase (iNOS), and cyclooxygenase-2 (COX-2); settings: synthesized demethylated compounds compared with nobiletin per se; Non Patent Literature 3; cited from earlier work
[2] = test system: Neuro2a; experiment: Neurite elongation activity in Neuro2a neurocytes; format: cell-based; settings: 20 μM, observed under microscope two days after addition, compared with comparative controls nobiletin and tangeretin
Protocol: The conversion compound 1, i.e., an isolated product of 4′-demethylnobiletin, and the conversion compound 2, i.e., an isolated product of 4′-demethyltangeretin, both obtained in Example 3 above were used to study neurite elongation activities. Neuro2a was used as a neurocyte.
First, Neuro2a cells were cultured in DMEM medium containing 10% fetal bovine serum (FBS) in a 37° C. incubator with 5% CO2. The cells were subcultured every three days.
Then, the cells were inoculated in a 24′-well cell culture plate at 2×10^4/well using DMEM medium containing 5% FBS. Three hours after subculture, various test samples were added each at a concentration of 20 μM. 4′-demethylnobiletin (the product in Example 3), 4′-demethyltangeretin (the product in Example 3), nobiletin (a comparative control), and tangeretin (a comparative control) dissolved in ethanol were used as the test samples. As a control, only ethanol was used.
Then, two days after addition of the various test samples, neurite elongation activities were observed under microscope. FIG. 4 show picture images for comparing the neurite elongation activities exerted by the various test samples in cultures.

**Q.** What does the source list for `COc1cc(-c2cc(=O)c3c(OC)c(OC)c(OC)c(OC)c3o2)ccc1O` [4′-demethylnobiletin]?
**A.** effect of preventing development of cancer by suppressing synthesis of NO, iNOS and COX-2 [1]: drastically higher effect than nobiletin; neurite elongation activity [2]: significant neurite elongation activities

**Q.** For `COc1ccc(-c2cc(=O)c3c(OC)c(OC)c(OC)c(OC)c3o2)cc1O` [3′-demethylnobiletin], which “effect of preventing development of cancer by suppressing synthesis of NO, iNOS and COX-2” value [1] is on record?
**A.** The value was “drastically higher effect than nobiletin”.

**Q.** Which “effect of preventing development of cancer by suppressing synthesis of NO, iNOS and COX-2” value [1] does the source give for `COc1c(OC)c(OC)c2c(=O)cc(-c3ccc(O)c(O)c3)oc2c1OC` [3′,4′-didemethylnobiletin] here?
**A.** Its value is “drastically higher effect than nobiletin”.

**Q.** With `COc1c(OC)c(OC)c2c(=O)cc(-c3ccc(O)cc3)oc2c1OC` [4′-demethyltangeretin] as the compound, how does the neurite elongation activity [2] read?
**A.** Its neurite elongation activity is “significant neurite elongation activities”.
